# Data from patent US9034855B2, “Substituted phenylacetate and phenylpropane amides and use thereof” (Bayer Intellectual Property GmbH, priority 2010, dated 2015).
# pIC50: −log10 of the molar value.
# How the values were obtained:
# [1] = Determination of the solubility; type: physicochemical; details: aqueous buffer, kinetic from dmso stock; PBS buffer pH 6.5, 20° C., 24 hours shaking, from DMSO solution
# Procedure: B-6. Determination of the Solubility
# Reagents Required: • PBS buffer pH 6.5: 90.00 g of NaCl p.a. (for example from Merck, Art. No. 1.06404.1000), 13.61 g of KH2PO4 p.a. (for example from Merck, Art. No. 1.04873.1000) and 83.35 g of 1N aqueous sodium hydroxide solution (for example from Bernd Kraft GmbH, Art. No. 01030.4000) are weighed into a 1 liter measuring flask, the flask is filled with distilled water to 1 liter and the mixture is stirred for 1 hour. Using 1N hydrochloric acid (for example from Merck, Art. No. 1.09057.1000) the pH is then adjusted to 6.5. • PEG/water solution (30:70 v/v): 30 ml of polyethylene glycol 400 (for example from Merck, Art. No. 8.17003.1000) and 70 ml of distilled water are homogenized in a 100 ml measuring flask. • PEG/PBS buffer pH 6.5 (80:20 v/v): 80 ml of polyethylene glycol 400 (for example from Merck, Art. No. 8.17003.1000) and 20 ml of PBS buffer pH 6.5 are homogenized in a 100 ml measuring flask. • Dimethyl sulphoxide (for example from Baker, Art. No. 7157.2500) • Distilled water.
# Preparation of the Starting Solution (Original Solution):
# At least 4 mg of the test substance are weighed accurately into a wide-necked 10 mm screw V vial (from Glastechnik Gräfenroda GmbH, Art. No. 8004-WM-H/V150 with fitting screw cap and septum, in a pipetting robot DMSO is added to a concentration of 50 mg/ml and the mixture is shaken for 10 minutes.
# Preparation of the Calibration Solutions:
# Preparation of the starting solution for calibration solutions (stock solution): With the aid of a pipetting robot, 10 μl of the original solution are transferred into a microtiter plate and made up with DMSO to a concentration of 600 μg/ml. The sample is shaken until everything has gone into solution.
# Calibration solution 1 (20 μg/ml): 1000 μl of DMSO are added to 34.4 μl of the stock solution, and the mixture is homogenized.
# Calibration solution 2 (2.5 μg/ml): 700 μl of DMSO are added to 100 μl of calibration solution 1, and the mixture is homogenized.
# Preparation of the Sample Solutions:
# Sample solution for solubilities of up to 5 g/liter in PBS buffer pH 6.5: 10 μl of the original solution are transferred into a microtiter plate, and 1000 μl of PBS buffer pH 6.5 are added.
# The sample solutions prepared in this manner are shaken at 1400 rpm in a temperature-adjustable shaker (for example Eppendorf Thermomixer comfort Art. No. 5355 000.011 with interchangeable block Art. No. 5362.000.019) at 20° C. for 24 hours. In each case 180 μl are taken from these solutions and transferred into Beckman Polyallomer Centrifuge Tubes (Art. No. 343621). These solutions are centrifuged at about 223 000×g for one hour (for example Beckman Optima L-90K Ultracentrifuge with Type 42.2 Ti Rotor at 42 000 rpm). From each of the sample solutions, 100 μl of the supernatant are removed and diluted 1:5 and 1:100 with DMSO. From each dilution, a sample is transferred into a vessel suitable for HPLC analysis.
# The samples are analysed by RP-HPLC. Quantification is carried out using a two-point calibration curve of the test compound in DMSO. The solubility is expressed in mg/liter. Analysis sequence: 1) calibration solution […]; 2) calibration solution 20 μg/ml; 3) sample solution 1:5; 4) sample solution 1:100.
# Agilent 1100 with DAD (G1315A), quat. pump (G1311A), autosampler CTC HTS PAL, degasser (G1322A) and column thermostat (G1316A); column: Phenomenex Gemini C18, 50 mm×2 mm, 5μ; temperature: 40° C.; mobile phase A: water/phosphoric acid pH 2; mobile phase B: acetonitrile; flow rate: 0.7 ml/min; gradient: 0-0.5 min 85% A, 15% B; ramp: 0.5-3 min 10% A, 90% B; 3-3.5 min 10% A, 90% B; ramp: 3.5-4 min 85% A, 15% B; 4-5 min 85% A, 15% B. […]
# human V2 receptor = molecular target: T1, human V2 receptor (Homo sapiens, UniProt P30518); assay: Cellular in vitro assay for determining the vasopressin receptor activity (aequorin luminescence, recombinant CHO cells), human V2; type: cell-based; details: CHO cells expressing aequorin and Gα16, transfected with human V2 receptor; agonist [Arg8]-vasopressin; read-out: IC50 hV2
# T1 construct: expressed in transfected cells; host or cells: CHO K1 (ATCC), constitutively expressing modified aequorin, co-transfected with promiscuous G-alpha-16
# From the text: (§1) B-1. Cellular In Vitro Assay for Determining the Vasopressin Receptor Activity
# (§2) The identification of agonists and antagonists of the V1a and V2 vasopressin receptors from humans and rats and also the quantification of the activity of the substances described here takes place using recombinant cell lines. These cells derive originally from a hamster's ovary epithelial cell (Chinese Hamster Ovary, CHO K1, ATCC: American Type Culture Collection, Manassas, Va. 20108, USA). The test cell lines constitutively express a modified form of the calcium-sensitive photoprotein aequorin, which, after reconstitution with the cofactor coelenterazine, emits light when there are increases in the free calcium concentration (Rizzuto R., Simpson A. W., Brini M., Pozzan T.; Nature 358 (1992) 325-327). In addition, the cells are stably transfected with the human or rat V1a or V2 receptors. In the case of the Gs-coupling V2 receptors, the cells are stably transfected with a further gene, which codes for the promiscuous Gα16 protein (Amatruda T. T., Steele D. A., Slepak V. Z., Simon M A., Proc. Na. Acad. Sci. USA 88 (1991), 5587-5591), either independently or as a fusion gene. The resulting vasopressin receptor test cells react to stimulation of the recombinantly expressed vasopressin receptors by intracellular release of calcium ions, which can be quantified by the resulting aequorin luminescence using a suitable luminometer (Milligan G., Marshall F., Rees S., Trends in Pharmaco. Sci. 17 (1996) 235-237).
# (§3) On the day before the assay, the cells are plated out in culture medium (DMEM, 10% FCS, 2 mM glutamine, 10 mM HEPES) in 384-well microtiter plates and kept in a cell incubator (96% atmospheric humidity, 5% v/v carbon dioxide, 37° C.). On the day of the assay, the culture medium is replaced by a Tyrode solution (140 mM sodium chloride, 5 mM potassium chloride, 1 mM magnesium chloride, 2 mM calcium chloride, 20 mM glucose, 20 mM HEPES), which additionally contains the cofactor coelenterazine (50 μM), and the microtiter plate is then incubated for a further 3-4 hours. The test substances in various concentrations are placed for 10 to 20 minutes in the wells of the microtiter plate before the agonist [Arg8]-vasopressin is added, and the resulting light signal is measured immediately in the luminometer. The IC50 values are calculated using the GraphPad PRISM computer program (Version 3.02).
# (§4) Table A below lists representative IC50 values for the compounds according to the invention transfected with the human V1a or V2 receptor: […]
# human V1a receptor = molecular target: T2, human V1a receptor (Homo sapiens, UniProt P37288); assay: Cellular in vitro assay for determining the vasopressin receptor activity (aequorin luminescence, recombinant CHO cells), human V1a; type: cell-based; details: CHO cells expressing aequorin, transfected with human V1a receptor; agonist [Arg8]-vasopressin; read-out: IC50 hV1a
# T2 construct: expressed in transfected cells; host or cells: CHO K1 (ATCC), constitutively expressing modified aequorin
# From the text: as §1, §2, §3, §4
# T1 sequence (P30518 whole entry): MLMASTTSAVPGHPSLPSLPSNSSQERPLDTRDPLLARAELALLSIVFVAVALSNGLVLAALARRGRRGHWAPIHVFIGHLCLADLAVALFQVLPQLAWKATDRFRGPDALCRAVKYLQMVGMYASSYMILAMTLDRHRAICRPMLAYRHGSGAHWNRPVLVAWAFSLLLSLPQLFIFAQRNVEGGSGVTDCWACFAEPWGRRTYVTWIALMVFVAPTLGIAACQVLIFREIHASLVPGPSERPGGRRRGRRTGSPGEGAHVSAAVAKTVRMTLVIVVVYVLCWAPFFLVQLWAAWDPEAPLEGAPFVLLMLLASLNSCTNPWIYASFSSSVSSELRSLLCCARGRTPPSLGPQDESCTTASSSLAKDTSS
# T2 sequence (P37288 whole entry): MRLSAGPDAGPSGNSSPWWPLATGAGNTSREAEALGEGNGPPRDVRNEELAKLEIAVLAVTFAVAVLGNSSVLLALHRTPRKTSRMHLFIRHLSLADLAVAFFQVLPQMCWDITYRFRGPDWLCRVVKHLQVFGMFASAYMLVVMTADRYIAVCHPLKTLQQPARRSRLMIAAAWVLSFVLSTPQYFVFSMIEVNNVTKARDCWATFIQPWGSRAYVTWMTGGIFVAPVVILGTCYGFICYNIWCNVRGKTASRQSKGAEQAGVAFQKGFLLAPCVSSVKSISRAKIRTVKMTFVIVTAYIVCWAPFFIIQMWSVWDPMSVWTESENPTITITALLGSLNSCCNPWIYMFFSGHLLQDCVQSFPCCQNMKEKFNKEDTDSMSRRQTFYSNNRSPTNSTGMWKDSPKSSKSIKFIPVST
solubility at 24 h [1] [µg/mL],pIC50 (human V2 receptor),pIC50 (human V1a receptor),SMILES
100,7.38,8.01,"O=C(Cn1nc(-c2ccc(Cl)cc2)n(C[C@H](O)C(F)(F)F)c1=O)NC(C(=O)NCCO)c1cccc(OC(F)(F)F)c1 (stereo partly drawn) [Example 52, 2-[({3-(4-Chlorophenyl)-5-oxo-4-[(2S)-3,3,3-trifluoro-2-hydroxypropyl]-4,5-dihydro-1H-1,2,4-triazol-1-yl}acetyl)amino]-N-(2-hydroxyethyl)-2-[3-(trifluoromethoxy)phenyl]acetamide]"
400,8.59,8.42,"O=C(C[C@H](NC(=O)Cn1nc(-c2ccc(Cl)cc2)n(C[C@H](O)C(F)(F)F)c1=O)c1cccc(C(F)(F)F)c1)NCCO [Example 54, (3S)-3-[({3-(4-Chlorophenyl)-5-oxo-4-[(2S)-3,3,3-trifluoro-2-hydroxypropyl]-4,5-dihydro-1H-1,2,4-triazol-1-yl}acetyl)amino]-N-(2-hydroxyethyl)-3-[3-(trifluoromethyl)phenyl]propanamide]"
–,8.59,9.05,"O=C(C[C@H](NC(=O)Cn1nc(-c2ccc(Cl)cc2)n(C[C@H](O)C(F)(F)F)c1=O)c1ccccc1C(F)(F)F)NCCO [Example 53, (3S)-3-[({3-(4-Chlorophenyl)-5-oxo-4-[(2S)-3,3,3-trifluoro-2-hydroxypropyl]-4,5-dihydro-1H-1,2,4-triazol-1-yl}acetyl)amino]-N-(2-hydroxyethyl)-3-[2-(trifluoromethyl)phenyl]propanamide]"
–,8.13,7.84,"COCCNC(=O)C[C@H](NC(=O)Cn1nc(-c2ccc(Cl)cc2)n(C[C@H](O)C(F)(F)F)c1=O)c1cccc(C(F)(F)F)c1 [Example 57, (3S)-3-[({3-(4-Chlorophenyl)-5-oxo-4-[(2S)-3,3,3-trifluoro-2-hydroxypropyl]-4,5-dihydro-1H-1,2,4-triazol-1-yl}acetyl)amino]-N-(2-methoxyethyl)-3-[3-(trifluoromethyl)phenyl]propanamide]"

# The next lines start with the molecule.
SMILES,solubility at 24 h [1] [µg/mL],pIC50 (human V2 receptor),pIC50 (human V1a receptor)
"CC(C)(NC(=O)C(NC(=O)Cn1nc(-c2ccc(Cl)cc2)n(/C=C/C(F)(F)F)c1=O)c1ccccc1C(F)(F)F)C(N)=O (racemic) [Example 31, N^2-{[({3-(4-Chlorophenyl)-5-oxo-4-[(1E)-3,3,3-trifluoroprop-1-en-1-yl]-4,5-dihydro-1H-1,2,4-triazol-1-yl}acetyl)amino][2-(trifluoromethyl)phenyl]acetyl}-2-methylalaninamide]",110,5.93,8.11
"COCCn1c(-c2ccc(Cl)s2)nn(CC(=O)NC(C(=O)NC(C)(C)C(=O)O)c2cccc(C(F)(F)F)c2)c1=O (racemic) [Example 10, N-{({[3-(5-Chloro-2-thienyl)-4-(2-methoxyethyl)-5-oxo-4,5-dihydro-1H-1,2,4-triazol-1-yl]acetyl}-amino) [3-(trifluoromethyl)phenyl}acetyl]-2-methylalanine]",360,6.02,6.82
"O=C(Cn1nc(-c2ccc(Cl)cc2)n(C2CC2)c1=O)NC(C(=O)NC1(C(=O)O)CC1)c1cccc(C(F)(F)F)c1 (racemic) [Example 6, 1-({({[3-(4-Chlorophenyl)-4-cyclopropyl-5-oxo-4,5-dihydro-1H-1,2,4-triazol-1-yl]acetyl}-amino)[3-(trifluoromethyl)phenyl}acetyl]amino)cyclopropanecarboxylic acid]",340,6.49,7.33
"CC(C)(NC(=O)[C@](C)(NC(=O)Cn1nc(-c2ccc(Cl)cc2)n(C[C@H](O)C(F)(F)F)c1=O)c1cccc(C(F)(F)F)c1)C(=O)O [Example 21, N-{(2R)-2-[({3-(4-Chlorophenyl)-5-oxo-4-[(2S)-3,3,3-trifluoro-2-hydroxypropyl]-4,5-dihydro-1H-1,2,4-triazol-1-yl}acetyl)amino]-2-[3-(trifluoromethyl)phenyl]propanoyl}-2-methylalanine]",360,9.10,9.00
"CC(C)(NC(=O)C(NC(=O)Cn1nc(-c2ccc(Cl)cc2)n(C[C@H](O)C(F)(F)F)c1=O)c1cccc(C(F)(F)F)c1)C(=O)O (single isomer, unassigned) [Example 25]",–,6.55,6.30
"CC(C)(NC(=O)C(NC(=O)Cn1nc(-c2ccc(Cl)cc2)n(Cc2ccccc2F)c1=O)c1cccc(Cl)c1Cl)C(N)=O (racemic) [Example 36, N^2-[({[3-(4-Chlorophenyl)-4-(2-fluorobenzyl)-5-oxo-4,5-dihydro-1H-1,2,4-triazol-1-yl]acetyl}-amino)(2,3-dichlorophenyl)acetyl]-2-methylalaninamide]",–,6.11,7.05
"CC(C)(NC(=O)C(NC(=O)Cn1nc(-c2ccc(Cl)cc2)n(CCC(F)(F)F)c1=O)c1ccccc1Cl)C(N)=O (racemic) [Example 35, N^2-[(2-Chlorophenyl)({[3-(4-chlorophenyl)-5-oxo-4-(3,3,3-trifluoropropyl)-4,5-dihydro-1H-1,2,4-triazol-1-yl]acetyl}amino)acetyl]-2-methylalaninamide]",–,6.18,8.05
